In brackets after ≈: the same amount, converted by molar mass.
B1: ATF2: Alcohol acetyltransferase from S. cerevisiae, expressed in recombinant E. coli BW25113 (protein, listed as Saccharomyces cerevisiae)
chain: MEDIEGYEPHITQELIDRGHARRMGHLENYFAVLSRQKMYSNFTVYAELNKGVNKRQLMLVLKVLLQKYSTLAHTIIPKHYPHHEAYYSSEEYLSKPFPQHDFIKVISHLEFDDLIMNNQPEYREVMEKISEQFKKDDFKVTNRLIELISPVIIPLGNPKRPNWRLICLPGKDTDGFETWKNFVYVTNHCGSDGVSGSNFFKDLALLFCKIEEKGFDYDEEFIEDQVIIDYDRDYTEISKLPKPITDRIDYKPALTSLPKFFLTTFIYEHCNFKTSSESTLTARYSPSSNANASYNYLLHFSTKQVEQIRAQIKKNVHDGCTLTPFIQACFLVALYRLDKLFTKSLLEYGFDVAIPSNARRFLPNDEELRDSYKYGSNVGGSHYAYLISSFDIPEGDNDKFWSLVEYYYDRFLESYDNGDHLIGLGVLQLDFIVENKNIDSLLANSYLHQQRGGAIISNTGLVSQDTTKPYYVRDLIFSQSAGALRFAFGLNVCSTNVNGMNMDMSVVQGTLRDRGEWESFCKLFYQTIGEFASL
B2: ATF1: Alcohol acetyltransferase from S. cerevisiae, expressed in recombinant E. coli BW25113 (protein, listed as Saccharomyces cerevisiae)
chain: MDLWKRLFEANPTKIRDKKIKNGHFISITNTINLSALMNEIDEKNQAPVQQECLKEMIQNGHARRMGSVEDLYVALNRQNLYRNFCTYGELSDYCTRDQLTLALREICLKNPTLLHIVLPTRWPNHENYYRSSEYYSRPHPVHDYISVLQELKLSGVVLNEQPEYSAVMKQILEEFKNSKGSYTAKIFKLTTTLTIPYFGPTGPSWRLICLPEEHTEKWKKFIFVSNHCMSDGRSSIHFFHDLRDELNNIKTPPKKLDYIFKYEEDYQLLRKLPEPIEKVIDFRPPYLFIPKSLLSGFIYNHLRFSSKGVCMRMDDVEKTDDVVTEIINISPTEFQAIKANIKSNIQGKCTITPFLHVCWFVSLHRWGKFFKPLNFEWLTDIFIPADCRSQLPDDDEMRQMYRYGANVGFIDFTPWISEFDMNDNKENFWPLIEHYHEVISEALRNKKHLHGLGFNIQGFVQKYVNIDKVMCDRAIGKRRGGTLLSNVGLFNQLEEPDAKYSICDLAFGQFQGSWHQAFSLGVCSTNVKGMNIVVASTKNVVGSQESLEELCSIYKALLLGP

What was measured:
[1] = solubility in water / aqueous medium; cited from earlier work
E. coli strain BW25113 [2] = experiment: Shake flask fermentation with candidate alcohol acyltransferases, isobutyl acetate production (GC-FID); type: cell-based; settings: strains identical except for the AAT; 20 g/L glucose, 30° C., 48 hours; ± standard deviation, three colonies
Text: (§1) Each was cloned and transformed into E. coli strain BW25113 for analysis.
(§2) Three synthetic operons were constructed for gene expression to produce isobutyl acetate and isoamyl acetate (FIG. 5). All the plasmids were constructed to be under the regulation of PLlacO1 promoter. To produce isobutyl acetate, the first operon included four coding regions on a medium copy plasmid carrying kanamycin resistance marker in a transcriptional order ilvC-ilvD-alsS-AAT, with the ATT position being occupied by the coding region of one of the five exemplary acyltransferases (AAT) being analyzed. (FIG. 5(a)). The second operon included two coding regions on a high copy plasmid with an ampicillin resistance maker in a transcriptional order kivd-yqhD. For the synthesis of isoamyl acetate, the coding regions of leuA, leuB, leuC, and leuD involved in leucine biosynthesis were introduced in the first medium copy plasmid between alsS and AAT, and the same second high copy plasmid was used. (FIG. 5(b)).
(§3) We assessed the effect of each of the five exemplary acyltransferases on the production titers for isobutyl acetate and isoamyl acetate. […]
(§4) Shake flask fermentations were carried out for the recombinant strains. […] The produced medium-chain ester compounds were quantified by GC-FID (gas chromatography-flame ionization detector) analysis. […]

E. coli strain BW25113 [3] = experiment: Shake flask fermentation with candidate alcohol acyltransferases, isoamyl acetate production (GC-FID); type: cell-based; settings: strains identical except for the AAT, with leuABCD; 20 g/L glucose, 30° C., 48 hours
Text: as §1, §2, §3, §4

| Molecule | Solubility [1] | isobutyl acetate production titer (E. coli strain BW25113 [2]) [g/L] | isoamyl acetate production titer (E. coli strain BW25113 [3]) |
| --- | --- | --- | --- |
| CCOC(=O)C(C)C [Ethyl isobutyrate] | 3200 µg/mL (≈ 27.5 mM) |  |  |
| CC(C)CC(=O)OC(=O)CC(C)C [isovaleryl isovalerate] | insoluble |  |  |
| CCOC(=O)CC(C)C [Ethyl isovalerate] | 2000 µg/mL (≈ 15.4 mM) |  |  |
| CCO [Ethanol] | miscible |  |  |
| CCOC(C)=O [Ethyl acetate] | 83000 µg/mL |  |  |
| CC(C)COC(=O)C(C)C [isobutyl isobutyrate] | 500 µg/mL (≈ 3.47 mM) |  |  |
| B1 |  | 1.69 ± 0.46 | highest production titers |
| B2 |  | 2.14 ± 0.17 | highest production titers |
